Reference: patent US8410247B2, “Water-soluble phosphinothiol reagents” (Wisconsin Alumni Research Foundation, priority 2008, dated 2013)
≈ marks a conversion by molar mass, not a printed value. Like-named read-outs stand apart in the source and are kept apart here.

How the values were obtained:
[1] = cited from earlier work; for pKa: ammonium pKa (Brown 1955)
[2] = pKa determination by 31P NMR spectroscopy; format: physicochemical; settings: control experiment, sodium phosphate buffer containing 20% v/v D2O
Description: The pKa values of phosphinothiols 33-35 were determined to quantitate the impact of Coulombic effects. […] Thus, the phosphorous pKa value of the cationic phosphinothiols appears to be below the limit of experimental detection. […] (Moore, S. J.; Marzilli, L. G. Inorg. Chem. 1998, 37, 5329-810 5335.) That value is much larger than the phosphorous pKa of phosphinothiols 33-35, consistent with the present hypothesis that through-space Coulombic effects lower the pKa of neighboring atoms, and in particular discourage protonation of the key iminophosphorane intermediate.
pKa Determination of phosphinothiols […] (10 mg) were each dissolved in sodium phosphate buffer containing 20% v/v D2O. 750 The solution was adjusted with a solution of either 6 N HCl or 2 N NaOH, and chemical shifts at each pH were determined by ^31P NMR spectroscopy. An external standard (D3PO4) was used to calibrate the chemical shifts. […] (Podlaha, J.; Podlahova, J. Collect. Czech. Chem. Commun. 1973, 38, 1730-1736.)

[3] = Gly+Gly coupling in DMF/D2O (6:1), reported previously; cited from earlier work
[4] = Solubility in water or aqueous sodium phosphate buffer; format: physicochemical; settings: 0.4 M sodium phosphate buffer (pH 7.8)
[5] = Stability in air / on storage; format: physicochemical; settings: chloride salt, solid

**Q.** Which “phosphorous pKa” value ([1]; in water (Moore 1998)) does the source give for Fc1ccc(P(c2ccc(F)cc2)c2ccc(F)cc2)cc1 [(p-F—C6H4)3P] here?
**A.** 1.97

**Q.** For COc1ccc(P(c2ccc(OC)cc2)c2ccc(OC)cc2)cc1 [(p-OMe-C6H4)3P], which “phosphorous pKa” value ([1]; in water (Moore 1998)) is on record?
**A.** 4.57

**Q.** With CCCCCCN [CH3(CH2)5NH3^+] as the compound, how does the pKa [1] read?
**A.** 10.63

**Q.** With CCCCCCCCCN [CH3(CH2)8NH3^+] as the compound, how does the pKa [1] read?
**A.** 10.65

**Q.** With CCP(c1ccccc1)c1ccccc1 [EtPPh2] as the compound, how does the “phosphorous pKa” value ([1]; neutral mimic of HSCH2PPh2 (Moore 1998)) read?
**A.** 4.90

**Q.** With c1ccc(P(c2ccccc2)c2ccccc2)cc1 [Ph3P] as the compound, how does the “phosphorous pKa” value ([1]; in water (Moore 1998)) read?
**A.** 2.73

**Q.** Which results are given for O=C(O)CCP(CCC(=O)O)CCC(=O)O [TCEP, tris(2-carboxyethyl)phosphine]?
**A.** pKa, reported value ([1]; reported value (Podlaha 1973)): 7.66; pKa [2]: 7.7

**Q.** Which pKa [1] does the source give for NCCCCCN [^+H3N(CH2)5NH3^+] here?
**A.** 9.74

**Q.** For NCCCCCCCCN [^+H3N(CH2)8NH3^+], which pKa [1] is on record?
**A.** 10.10

**Q.** With SCP(c1ccccc1)c1ccccc1 [phosphinothiol 1, (Diphenylphosphino)methanethiol] as the compound, how does the “second-order rate constant k2” value [3] read?
**A.** 0.0077 M⁻¹ s⁻¹

**Q.** For O=C(O)CNC(=O)c1ccc(P(CS)c2ccc(C(=O)NCC(=O)O)cc2)cc1 [phosphinothiol 9], which solubility [4] is on record?
**A.** ~50 mM (≈ 21.7 mg/mL)

**Q.** What does the source list for CN(C)CCc1ccc(P(CS)c2ccc(CCN(C)C)cc2)cc1 [phosphinothiol 17, bis(p-dimethylaminoethyl) phosphinomethanethiol]?
**A.** solubility ([4]; aqueous buffer, chloride salt, read-out: solubility): > 1000 mM; stability in air [5]: stable in air for several days
